Like-named read-outs stand apart in the source and are kept apart here. A value given as a limit tells only on which side of the number the result lay.

Test [1] deals with GSPT1 (Homo sapiens (Human), UniProt P15170+Q96SW2). As to the kind of experiment: Immunofluorescence assay for GSPT1 degradation in CAL-Si cells. It is filed as cell-based. To be noted: CAL-Si cells. As to the method: The compounds were tested in an immunofluorescence assay for their activity to bind to degrade GSPT1. CAL-Si cells were purchased from DSMZ (cat. Number ACC302), sub-cultured in 90% Dulbecco's MEM (4.5 g/L glucose, Gibco 11965)+10% heat inactivated FBS (BioConcept, 2-01F136I) and incubated at 37° C., 5% CO2. For the assay, imaging microtiterplate Cell Carrier 96 Ultra (Perkin Elmer 6055302) were pre-coated with Fibronectin (Sigma F085, 30 μl at 0.2 μg/ml) in PBS (100 μl, Gibco 14190) for 45 min at room temperature, rinsed with PBS and CAL-Si cells (30K cells/well) were plated and let to adhere overnight. Cells were treated with compounds typically using a serial dilution ranging from 30 μM to 0.1 nM for 6 hours. Compounds were stored at 10 mM DMSO stocks. Vehicle (DMSO), positive (CC-885, 10 μM) and rescue controls (positive control plus 0.2 μM bortezomib) were also included at this stage. Cells were subsequently rinsed with PBS and fixed in 10% Formalin solution (50 μl, Sigma HT5011)) for 20 mins at room temperature. Following three consecutive PBS washes (100 μl), cells were permeabilized in 0.1% Triton X-100 in PBS (Sigma 93443, 50 μl) for 15 mins at room temperature. Following three further PBS washes, 50 μl blocking buffer (1% BSA, Sigma A4503, in PBS) was added for 45 min for signal-to-noise reduction.
Sequence of GSPT1 (P15170 whole entry): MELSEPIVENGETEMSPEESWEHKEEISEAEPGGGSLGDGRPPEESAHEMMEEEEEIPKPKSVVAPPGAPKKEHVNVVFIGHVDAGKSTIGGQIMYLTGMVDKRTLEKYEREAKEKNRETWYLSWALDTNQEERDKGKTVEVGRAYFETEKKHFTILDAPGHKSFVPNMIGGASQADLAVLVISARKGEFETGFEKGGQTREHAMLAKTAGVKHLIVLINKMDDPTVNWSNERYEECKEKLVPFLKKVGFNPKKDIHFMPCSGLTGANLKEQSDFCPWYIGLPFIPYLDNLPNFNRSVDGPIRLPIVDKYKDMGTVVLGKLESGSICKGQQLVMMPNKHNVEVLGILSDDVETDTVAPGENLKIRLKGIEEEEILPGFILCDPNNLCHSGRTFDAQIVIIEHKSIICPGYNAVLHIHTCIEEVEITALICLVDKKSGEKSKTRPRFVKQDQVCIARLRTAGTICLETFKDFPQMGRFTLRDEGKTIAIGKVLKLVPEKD
Sequence of GSPT1 (Q96SW2 whole entry): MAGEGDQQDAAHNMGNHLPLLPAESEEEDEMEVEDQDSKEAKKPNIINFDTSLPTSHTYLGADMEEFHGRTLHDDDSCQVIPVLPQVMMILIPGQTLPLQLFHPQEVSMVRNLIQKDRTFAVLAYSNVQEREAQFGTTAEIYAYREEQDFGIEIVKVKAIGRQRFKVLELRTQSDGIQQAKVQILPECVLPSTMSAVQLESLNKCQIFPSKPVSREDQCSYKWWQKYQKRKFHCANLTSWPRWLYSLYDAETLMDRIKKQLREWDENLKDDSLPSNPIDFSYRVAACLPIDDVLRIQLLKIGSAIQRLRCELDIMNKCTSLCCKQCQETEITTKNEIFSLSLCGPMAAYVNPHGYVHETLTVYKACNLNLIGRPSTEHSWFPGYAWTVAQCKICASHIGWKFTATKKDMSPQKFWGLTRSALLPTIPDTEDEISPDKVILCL
Sequence of GSPT1 (Q16531 whole entry partner): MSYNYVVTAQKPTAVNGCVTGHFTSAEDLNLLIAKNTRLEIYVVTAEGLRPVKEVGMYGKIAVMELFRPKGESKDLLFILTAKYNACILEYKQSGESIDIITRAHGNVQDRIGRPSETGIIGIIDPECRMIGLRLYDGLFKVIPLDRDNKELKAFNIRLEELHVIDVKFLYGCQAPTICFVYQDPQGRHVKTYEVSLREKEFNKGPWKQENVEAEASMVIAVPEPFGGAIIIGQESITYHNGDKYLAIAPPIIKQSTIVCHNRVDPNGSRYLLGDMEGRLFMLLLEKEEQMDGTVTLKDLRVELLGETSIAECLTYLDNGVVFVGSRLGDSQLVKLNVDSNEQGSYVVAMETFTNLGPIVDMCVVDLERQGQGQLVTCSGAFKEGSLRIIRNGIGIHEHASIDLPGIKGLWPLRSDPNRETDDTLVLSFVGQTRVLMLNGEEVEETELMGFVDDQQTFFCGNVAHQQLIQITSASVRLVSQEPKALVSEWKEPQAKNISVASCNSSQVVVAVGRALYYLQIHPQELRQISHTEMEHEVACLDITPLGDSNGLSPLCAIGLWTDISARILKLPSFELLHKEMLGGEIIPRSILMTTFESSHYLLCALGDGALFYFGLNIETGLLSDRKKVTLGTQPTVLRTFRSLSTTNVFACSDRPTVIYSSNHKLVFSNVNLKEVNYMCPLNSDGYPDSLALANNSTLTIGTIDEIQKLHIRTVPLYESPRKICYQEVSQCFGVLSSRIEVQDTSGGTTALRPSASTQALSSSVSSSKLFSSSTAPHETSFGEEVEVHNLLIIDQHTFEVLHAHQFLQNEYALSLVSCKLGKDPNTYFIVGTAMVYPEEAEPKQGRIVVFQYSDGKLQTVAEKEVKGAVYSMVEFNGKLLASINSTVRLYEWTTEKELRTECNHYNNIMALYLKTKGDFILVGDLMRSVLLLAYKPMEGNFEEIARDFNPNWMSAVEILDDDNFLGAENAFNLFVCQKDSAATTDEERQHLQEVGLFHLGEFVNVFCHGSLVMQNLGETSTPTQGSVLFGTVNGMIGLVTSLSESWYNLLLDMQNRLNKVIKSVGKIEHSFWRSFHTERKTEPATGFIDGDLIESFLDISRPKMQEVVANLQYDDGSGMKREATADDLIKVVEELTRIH
Primary antibody (human GSPT1, Sigma HPA052488) was diluted in blocking buffer (dil.1/300, 35 μl/well) and incubated with the cells overnight at 4° C. After three PBS washes, Alexa-fluor 488 coupled secondary antibodies (Invitrogen, A32731, dil.1/1000), Alexa-fluor 647-Phalloïdin (Invitrogen, A22287, dil.1/200) and DAPI (Thermo, #62248, dil.1/1000) were diluted in blocking buffer and incubated with the samples for 2 hours at room temperature. After three final PBS washes, samples were conserved in 100 μl PBS in the dark, until measurement. Image acquisition was performed on the Operetta High-Content Imager (Perkin-Elmer). Fluorescence intensity of Alexa-Fluor 488 (GSPT1), Alexa-Fluor 647 (Actin) and DAPI (Nucleus) were measured. For the determination of GSPT1 DC50 values, a custom algorithm implemented in the PerkinElmer image analysis software Harmony-Acapella® was developed. After user-defined setting of adjustment parameters, the analysis was run identically without human intervention for all image fields. DAPI staining of the nuclei was used to determine the location of cells using standard nuclei detection modules. Segmentation artifacts were removed by threshold-based filters for area, roundness and intensity. The outline of the cells was determined analogously from the sum of the normalized, smoothed DAPI and Actin channel, starting from each nucleus. The Alexa-Fluor 488 (GSPT1) signal intensity in each cell was finally measured, in order to obtain a Mean intensity per cell. GSPT1 degradation (DC50) was calculated after normalization to controls and data import in CDD vault Database, using non-linear regression.

For test [2], the target named is Full length wild-type cereblon CRBN (Homo sapiens (Human), UniProt Q96SW2). As to the kind of experiment: Fluorescence polarization (FP) assay, cereblon binding. As to the method: Compound activity was monitored in a fluorescence polarization (FP) homogeneous assay using 1-[5-({2-[2-(2-{[2-(2,6-dioxopiperidin-3-yl)-1,3-dioxo-2,3-dihydro-1H-isoindol-4-yl]oxy}acetamido)ethoxy]ethyl}carbamoyl)pentyl]-3,3-dimethyl-2-[(1E,3E)-5-[(2E)-1,3,3-trimethyl-5-sulfo-2,3-dihydro-1H-indol-2-ylidene]penta-1,3-dien-1-yl]-3H-indol-1-ium-5-sulfonate as a fluorescent probe. Unless otherwise stated, all reagents were purchased from Sigma Aldrich. Enzymatic reactions were conducted in Perkin-Elmer Black 384 well ProxiPlate Plus (catalogue no. 6008269) in 10 sL total volume. Full length wild-type cereblon CRBN (80.0 nM, 10 sL) was incubated in assay buffer containing 20 mM HEPES (pH 8.0), […], 0.5 mM TCEP and 0.05% Tween 20 in the presence or absence of compound (300 nL). Inhibitors were stored as 10 mM DMSO stocks in an inert environment (low humidity, dark, low oxygen, room temperature) using the Storage Pod System.
Sequence of Full length wild-type cereblon CRBN (Q96SW2 whole entry): as the sequence (Q96SW2 whole entry) above
Compounds and DMSO were dispensed using the Echo E5XX (Labcyte Inc. USA) to give concentrations from 300 to 0.937 or 3000 to 9.3 nM in a 12 data point curve. […] Following incubation at room temperature for 30 min, the assay was initiated by dispensing the probe to a final concentration of 5 nM (2.5 nL of a 20 μM stock) using the Echo E5XX. FP was measured after a period of 12 hours using a Pherastar plate reader (BMG Labtech, Germany) exciting at 590 nm and measuring the amount of parallel and perpendicular light at 675 nm. The FP signal was subsequently normalized to the no-compound control (i.e., DMSO). Analysis and IC50 values were derived using Dotmatics (Dotmatics UK) software.
(In general: Polarisation of emitted light reports the rotation of a fluorescent probe.)

[3] abbreviates: compounds with code A, read-out: DC50 value code.
Setting [4] is: treated 6 hours, read-out: Code, activity for GSPT1 degradation (DC50).
Where [5] appears, read: cereblon binding, bound, read-out: IC50 value.
Setting [6] is: wild-type CRBN 80.0 nM, probe 5 nM, FP measured after 12 hours, read-out: rFP IC50.

Turning to `O=C1CCC(N2Cc3c(F)cc(COC(=O)Nc4cccc(OC5CC5)c4)cc3C2=O)C(=O)N1` (stereo not drawn) [Compound 21, (2-(2,6-dioxopiperidin-3-yl)-7-fluoro-3-oxoisoindolin-5-yl)methyl (3-cyclopropoxyphenyl)carbamate], the DC50 in test [1] (setting [3]) and in test [1] (setting [4]) was < 0.03 µM in each case. Further, the IC50 – broadly, the concentration that gives 50% inhibition – was < 0.6 µM in test [2] (setting [5]) and 1.2 to 1.9 µM in test [2] (setting [6]).

With `COc1cc(COC(=O)Nc2cccc(OC(F)(F)F)c2)cc2c1CN(C1CCC(=O)NC1=O)C2=O` (stereo not drawn) [Compound 55, (2-(2,6-dioxopiperidin-3-yl)-7-methoxy-3-oxoisoindolin-5-yl) methyl (3-(trifluoromethoxy)phenyl)carbamate], the DC50 in test [1] (setting [3]) and in test [1] (setting [4]) was < 0.03 µM in each case. In addition, the IC50 in test [2] (setting [6]) was 0.6 to 1.2 µM.

Take `O=C1CCC(N2Cc3c(F)cc(COC(=O)Nc4cc(F)cc(OC(F)(F)F)c4)cc3C2=O)C(=O)N1` (stereo not drawn) [Compound 12, (2-(2,6-dioxopiperidin-3-yl)-7-fluoro-3-oxoisoindolin-5-yl)methyl(3-fluoro-5-(trifluoromethoxy)phenyl)carbamate]: in test [1] (setting [4]), the DC50 (as a rule, the concentration giving 50% degradation) fell in the range of 0.03 to 0.3 µM. For the same compound, the IC50 in test [2] (setting [6]) is > 1.9 µM.

Take `Cc1ccc(NC(=O)OCc2cc(C#N)c3c(c2)C(=O)N(C2CCC(=O)NC2=O)C3)cc1Cl` (stereo not drawn) [Compound 2, (7-cyano-2-(2,6-dioxopiperidin-3-yl)-3-oxoisoindolin-5-yl)methyl (3-chloro-4-methylphenyl)carbamate]: in test [1] (setting [4]), the DC50 was in the range of 0.03 to 0.3 µM. For the same compound, the IC50 in test [2] (setting [6]) was > 1.9 µM.

With `CC1CCCCN1c1ccc(NC(=O)OCc2cc(F)c3c(c2)C(=O)N(C2CCC(=O)NC2=O)C3)cn1` (stereo not drawn) [Compound 16, (2-(2,6-dioxopiperidin-3-yl)-7-fluoro-3-oxoisoindolin-5-yl)methyl (6-(2-methylpiperidin-1-yl)pyridin-3-yl)carbamate], the DC50 in test [1] (setting [3]) and in test [1] (setting [4]) was < 0.03 µM each time. Also, the values for the IC50 in test [2] (setting [5]) and in test [2] (setting [6]) were < 0.6 µM and 0.6 to 1.2 µM, respectively.

As to `Cc1ccc(NC(=O)OCc2cc(F)c3c(c2)C(=O)N(C2CCC(=O)NC2=O)C3)cc1OC(F)F` (stereo not drawn) [Compound 35, (2-(2,6-dioxopiperidin-3-yl)-7-fluoro-3-oxoisoindolin-5-yl) methyl (3-(difluoromethoxy)-4-methylphenyl)carbamate], the DC50 in test [1] (setting [3]) and in test [1] (setting [4]) was < 0.03 µM in each case. Also, the IC50 in test [2] (setting [6]) was > 1.9 µM.

Turning to `Cc1ccc(NC(=O)OCc2cc(Cl)c3c(c2)C(=O)N(C2CCC(=O)NC2=O)C3)cc1Cl` (stereo not drawn) [Compound 4, (7-chloro-2-(2,6-dioxopiperidin-3-yl)-3-oxoisoindolin-5-yl)methyl (3-chloro-4-methylphenyl)carbamate], the DC50 in test [1] (setting [4]) fell in the range of 0.03 to 0.3 µM. For the same compound, the IC50 in test [2] (setting [6]) is > 1.9 µM.

Take `COc1cc(COC(=O)Nc2ccc(C3(C)CC3)cc2)cc2c1CN(C1CCC(=O)NC1=O)C2=O` (stereo not drawn) [Compound 40, (2-(2,6-dioxopiperidin-3-yl)-7-methoxy-3-oxoisoindolin-5-yl)methyl (4-(1-methylcyclopropyl)phenyl)carbamate]: the half-maximal degradation concentration (DC50) in test [1] (setting [3]) and in test [1] (setting [4]) was < 0.03 µM each time. In addition, the IC50 in test [2] (setting [5]) was < 0.6 µM; in test [2] (setting [6]) it was ≤ 0.6 µM.

Take `Cc1ccc(NC(=O)OCc2cc(F)c3c(c2)C(=O)N(C2CCC(=O)NC2=O)C3)cc1Cl` (stereo not drawn) [Compound 3, (2-(2,6-dioxopiperidin-3-yl)-7-fluoro-3-oxoisoindolin-5-yl)methyl(3-chloro-4-methylphenyl)carbamate]: in test [1] (setting [4]), the DC50 fell in the range of 0.03 to 0.3 µM. Also, the IC50 in test [2] (setting [6]) is > 1.9 µM.

As for `O=C1CCC(N2Cc3c(F)cc(COC(=O)Nc4cc(Cl)cc(Cl)c4)cc3C2=O)C(=O)N1` (stereo not drawn) [Compound 28, (2-(2,6-dioxopiperidin-3-yl)-7-fluoro-3-oxoisoindolin-5-yl)methyl(3,5-dichlorophenyl)carbamate], in test [1] (setting [4]), the DC50 is 0.03 to 0.3 µM. Further, in test [2] (setting [6]), the IC50 is > 1.9 µM.

Regarding `COc1cc(COC(=O)Nc2cc(F)cc(OC(F)(F)F)c2)cc2c1CN(C1CCC(=O)NC1=O)C2=O` (stereo not drawn) [Compound 41, (2-(2,6-dioxopiperidin-3-yl)-7-methoxy-3-oxoisoindolin-5-yl)methyl (3-fluoro-5-(trifluoromethoxy)phenyl) carbamate], the 50% degradation concentration (DC50) in test [1] (setting [4]) lay within 0.03 to 0.3 µM. Also, the IC50 in test [2] (setting [5]) is < 0.6 µM; in test [2] (setting [6]), 1.2 to 1.9 µM.

For the compound `COc1cc(COC(=O)Nc2cc(-c3ccccc3)ccn2)cc2c1CN(C1CCC(=O)NC1=O)C2=O` (stereo not drawn) [Compound 56, (2-(2,6-dioxopiperidin-3-yl)-7-methoxy-3-oxoisoindolin-5-yl)methyl (4-phenylpyridin-2-yl)carbamate], the DC50 in test [1] (setting [3]) and in test [1] (setting [4]) was < 0.03 µM in each case. The IC50 was < 0.6 µM in test [2] (setting [5]) and ≤ 0.6 µM in test [2] (setting [6]).

`COc1cc(COC(=O)Nc2cnc(-c3ccccc3)c(C)c2)cc2c1CN(C1CCC(=O)NC1=O)C2=O` (stereo not drawn) [Compound 59, (2-(2,6-dioxopiperidin-3-yl)-7-methoxy-3-oxoisoindolin-5-yl)methyl(5-methyl-6-phenylpyridin-3-yl)carbamate]: the DC50 in test [1] (setting [3]) and in test [1] (setting [4]) was < 0.03 µM in each case. Also, the IC50 in test [2] (setting [5]) is < 0.6 µM; in test [2] (setting [6]), ≤ 0.6 µM.

For the compound `COc1cc(COC(=O)Nc2cc(F)cc(Cl)c2)cc2c1CN(C1CCC(=O)NC1=O)C2=O` (stereo not drawn) [Compound 50, (2-(2,6-dioxopiperidin-3-yl)-7-methoxy-3-oxoisoindolin-5-yl)methyl(3-chloro-5-fluorophenyl)carbamate], the DC50 in test [1] (setting [3]) and in test [1] (setting [4]) was < 0.03 µM in each case. For the same compound, the IC50 in test [2] (setting [5]) is < 0.6 µM; in test [2] (setting [6]), 0.6 to 1.2 µM.

On to `COc1cc(COC(=O)Nc2cc(Cl)cc(OC(F)F)c2)cc2c1CN(C1CCC(=O)NC1=O)C2=O` (stereo not drawn) [Compound 49, (2-(2,6-dioxopiperidin-3-yl)-7-methoxy-3-oxoisoindolin-5-yl)methyl (3-chloro-5-(difluoromethoxy)phenyl)carbamate], for which the DC50 in test [1] (setting [3]) and in test [1] (setting [4]) was < 0.03 µM throughout. In addition, the IC50 in test [2] (setting [5]) was < 0.6 µM; in test [2] (setting [6]), 0.6 to 1.2 µM.

Turning to `COc1cc(COC(=O)Nc2ccc(C(C)(C)C)nc2)cc2c1CN(C1CCC(=O)NC1=O)C2=O` (stereo not drawn) [Compound 44, (2-(2,6-dioxopiperidin-3-yl)-7-methoxy-3-oxoisoindolin-5-yl)methyl (6-(tert-butyl)pyridin-3-yl)carbamate], the DC50 in test [1] (setting [3]) and in test [1] (setting [4]) was < 0.03 µM each time. The figures for the IC50 in test [2] (setting [5]) and in test [2] (setting [6]) were < 0.6 µM and ≤ 0.6 µM, respectively.

The values are drawn from patent publication US20240051936A1, “ISOINDOLINONE COMPOUNDS” (Monte Rosa Therapeutics, Inc., priority 2021, published 2024).
